Source: patent publication US6403624B1, “8,8A-dihydroindeno[1,2-D] thiazole derivatives which are substituted in the 8A-position; processes for their preparation and their use as medicaments” (Aventis Pharma Deutschland GmbH, priority 2000, dated 2002)

How the values were obtained:
female NMRI mice = assay: Anorectic action: cumulated milk consumption after oral administration; format: in vivo
Method: The anorectic action was tested on female NMRI mice. After withdrawal of food for 24 hours, the test preparation of the invention was administered via a stomach tube. Kept individually and with free access to drinking water, the animals were offered evaporated milk 30 minutes after the administration of the preparation. The consumption of evaporated milk was determined every half-hour for 7 hours and the general condition of the animals was observed. The measured milk consumption was compared with that of untreated control animals.

- melting point: 148 °C
Structure (SMILES): OC12N=C(c3ccccc3)SC1(Br)Cc1cc(Cl)ccc12 (stereo not drawn) [Example 1, 8a-Bromo-6-chloro-2-phenyl-8,8a-dihydroindeno[1,2-d]thiazol-3a-ol]
- Number of animals/ cumulated milk consumption of the treated animals N/[ml] (female NMRI mice; oral dose 50 mg/kg via stomach tube, female NMRI mice after 24 h food withdrawal, evaporated milk consumption determined over 7 hours, N=5): 5/0.64 ml
- Reduction of the cumulated milk consumption in % of the control (female NMRI mice; oral dose 50 mg/kg, female NMRI mice, compared to untreated control animals): 82%
